Columns and labels:
HIF-1α = assay: Western blot of HIF-1α nuclear translocation; type: cell-based, murine; conditions: IOX2 or FG-4592 for 24 hours, vs untreated control; Lamin A/C housekeeper
Experimental: (§1) For nuclei separation, 5 x 10^6 cells were collected after enzymatic digestion with trypsin (Merck), centrifuged at the maximum speed, resuspended in 400 µl of Buffer A (10 mM KCl, 0.1 mM EDTA, 1 mM DTT, 10 mM Hepes, pH 7.9), containing protease and phosphatase inhibitors cocktail (Merck), and incubated on ice for 20 minutes. Then, 10% NP40 was added to the cell suspension, mixed for 40 seconds, and centrifuged 40 seconds at the maximum speed. After centrifugation, the pellet was resuspended in 80 µl of Buffer C (0.4M NaCl, 1 mM EDTA, 1 mM DTT, 20 mM Hepes, pH 7.9), containing a protease and phosphatase inhibitors cocktail, and then mixed for 30 minutes at 4°C at the maximum speed. Finally, the nuclear suspension was centrifuged for 5 minutes at 4°C at the maximum speed, collected and transferred in a new tube. The total protein content was determined with the BCA Protein Assay Kit (Pierce), according to the manufacturer's instructions.
(§2) Proteins were denaturated by boiling for 10 minutes in sample buffer (0.6 g/100 mL Tris, 2 g/100 mL SDS, 10% glycerol, 1% 2-mercaptoethanol, pH 6.8) and loaded into 10% SDS-PAGE gel, then transferred onto a nitrocellulose membrane (Trans-blot, Bio-Rad Laboratories) by electroblotting. Nitrocellulose membranes were incubated with a blocking solution containing 5% (w/v) non-fat dry milk or 5% (w/v) BSA (Merck) in Tris-buffer saline with 0.1% Tween® 20 (TBS-T) for 1 hour. […] Membranes were washed three times for 10 minutes with TBS-T, and then incubated with the appropriate anti-mouse, anti-rabbit, or anti-goat HRP-conjugated secondary antibodies (Dako, Agilent Technologies), 1:2000 dilution, for 1 hour at room temperature. After three washes for 10 minutes with TBS-T, the immunoreactive bands were visualized using the enhanced chemiluminescence detection kit reagents (ECL Advance, GeHealthcare), according to the manufacturer's instructions.
as §1, with “For total proteins extraction, 7.5 x 10^4 cells were seeded and harvested at 7th days of skeletal muscle differentiation, as previously described. Cells were collected after enzymatic digestion with trypsin (Merck), lysed by sonication and centrifuged at 800 xg for 10 minutes. Supernatant was used to determine total protein content with the BCA Protein Assay Kit (Pierce), according to the manufacturer's instructions. For” for “For”, “(0.4 M” for “(0.4M”

MYOR = assay: qPCR of MYOR; type: cell-based, murine; conditions: IOX2 or FG-4592 treatment, vs controls
Experimental: (§3) Total RNA was isolated using ReliaPrep™ RNA Miniprep Systems (Promega), and reverse transcribed to cDNA using the iScript cDNA synthesis kit (BioRad), according to the Manufacturer's instructions. Real-Time Quantitative PCR was performed on 10 ng of cDNA template, 0.2 µM primers, and GoTaq® qPCR Master Mix (Promega) in 20 µl final volume using a StepOnePlus® Real-Time PCR System (Applied Biosystem). […] RPL13 was used as the housekeeping gene. The amplification program consisted in an initial denaturation at 95°C for 3 minutes, followed by 40 cycles of 5 seconds each at 95°C and 30 seconds at 57°C; WNT7a was amplified at 53°C. Relative quantification of target genes was performed in triplicate and calculated by the equation 2^-ΔΔCt.

MHC = assay: Western blot of MHC in WNT7a-KO versus wild type myoblasts at end of differentiation; type: cell-based, murine; conditions: WNT7a-KO vs wild type cells, inhibitor pre-treated
Experimental: Cells were collected after enzymatic digestion with trypsin (Merck), lysed by sonication and centrifuged at 800 xg for 10 minutes. Supernatant was used to determine total protein content with the BCA Protein Assay Kit (Pierce), according to the manufacturer's instructions.
as §2
(§4) Therefore, WNT7a silencing was conducted by Crispr/Cas9 genome editing in C2C12 murine myoblasts and the effects on myogenesis were evaluated.

VEGF = assay: qPCR of HIF-1α target gene VEGF; type: cell-based, murine; conditions: IOX2 or FG-4592 treatment, vs untreated controls
Experimental: as §3
as §3, with “ReliaPrepTM” for “ReliaPrep™”, “2-ΔΔCt.” for “2^-ΔΔCt.”

WNT7a = assay: qPCR of WNT7a gene expression; type: cell-based, murine; conditions: IOX2 or FG-4592 treatment
Experimental: as §3

MyoD [1] = assay: Western blot of MyoD nuclear localization; type: cell-based, murine; conditions: IOX2 or FG-4592 for 24 hours
Experimental: as §1, §2
as §1, with “For total proteins extraction, 7.5 x 10^4 cells were seeded and harvested at 7th days of skeletal muscle differentiation, as previously described. Cells were collected after enzymatic digestion with trypsin (Merck), lysed by sonication and centrifuged at 800 xg for 10 minutes. Supernatant was used to determine total protein content with the BCA Protein Assay Kit (Pierce), according to the manufacturer's instructions. For” for “For”, “(0.4 M” for “(0.4M”

MyoD [2] = assay: Western blot of MyoD nuclear localization in WNT7a-KO versus wild type myoblasts; type: cell-based, murine; conditions: WNT7a-KO vs wild type cells, after 24 h inhibitor pre-treatment
Experimental: as §1
Proteins were denaturated by boiling for 10 minutes in sample buffer (0.6 g/100 mL Tris, 2 g/100 mL SDS, 10% glycerol, 1% 2-mercaptoethanol, pH 6.8) and loaded into 10% SDS-PAGE gel, then transferred onto a nitrocellulose membrane (Trans-blot, Bio-Rad Laboratories) by electroblotting. […]
as §4

PHDs = assay: ODD-luciferase reporter assay (Dual-Glo) for PHDs inhibition; conditions: C2C12 myoblasts transfected with ODD-luciferase-pcDNA3; 24 hours at 10, 25, 50, 100 µM, normoxic conditions; linear regression
Experimental: The IC50 was calculated using a Dual-Glo® Luciferase Assay System kit (Promega) that allows a high-throughput analysis of mammalian cells containing the Firefly (Luciferase-pcDNA3, ODD-Luciferase-pcDNA3) and Renilla (pRL-CMV) luciferase reporters. Briefly, 5 x 10^3 cells per well were seeded in a 96-well plate, and then transfected for 24 hours with a Luciferase-pcDNA3 or an ODD-Luciferase-pcDNA3 (80 ng), containing the firefly gene reporter. A co-transfection with pRL-CMV (8 ng), containing the renilla gene reporter, was performed as an internal control, according to the ViaFect Transfection Reagent® protocol (Promega). After transfection, cells were treated with 10, 25, 50, and 100 µM IOX2 or FG-4592 (R oxadustat) for 24 hours, and then an equal volume of Dual-Glo® Luciferase Reagent was added to each well, incubated at room temperature for 30 minutes, and then analyzed with a Varioskan™ LUX Multimode Microplate Reader (ThermoFisher Scientific). Then, an equal volume of Dual-Glo® Stop & Glo® Reagent was added to each well in order to quench the luminescence from the firefly reaction and to provide the substrate for the renilla luciferase. The mixture was incubated for 30 minutes before analysis. The IC50 values were calculated by linear regression.
To this purpose, the IC50 of both compounds was determined by transiently co-transfecting C2C12 myoblasts with the ODD-luciferase-pcDNA3 plasmid, containing the Oxygen Dependent Domain (ODD) of HIF-1α, and with the pRL-CMV plasmid, as the internal control (Figure 4, panel A). Then, transfected cells were treated for 24 hours with IOX2 or FG-4592 at different concentrations (10, 25, 50, and 100 µM) under normoxic conditions, and the emitted luminescence was collated to untreated controls.
The EC50 was calculated using a Dual-Glo® Luciferase Assay System kit (Promega) that allows a high-throughput analysis of mammalian cells containing the Firefly (Luciferase-pcDNA3, ODD-Luciferase-pcDNA3) and Renilla (pRL-CMV) luciferase reporters. Briefly, 5 x 10^3 cells per well were seeded in a 96-well plate, and then transfected for 24 hours with a Luciferase-pcDNA3 or an ODD-Luciferase-pcDNA3 (80 ng), containing the firefly gene reporter. A co-transfection with pRL-CMV (8 ng), containing the renilla gene reporter, was performed as an internal control, according to the ViaFect Transfection Reagent® protocol (Promega). […] Then, an equal volume of Dual-Glo® Stop & Glo® Reagent was added to each well in order to quench the luminescence from the firefly reaction and to provide the substrate for the renilla luciferase. The mixture was incubated for 30 minutes before analysis. The EC50 values were calculated by linear regression.
The EC50 of each compound was determined by transiently co-transfecting C2C12 myoblasts with the ODD-luciferase-pcDNA3 plasmid, containing the Oxygen Dependent Domain (ODD) of HIF-1α, and with the pRL-CMV plasmid, as the internal control (Figure 12, panel A).

SMILES	HIF-1α nuclear translocation, protein increase (HIF-1α)	MYOR mRNA level down-regulated (MYOR)	decrease of MHC expression (MHC)	increase in the expression of VEGF (VEGF)	increase in WNT7a gene expression (WNT7a)	increase of the nuclear localization of MyoD (MyoD [1])	decrease of MyoD nuclear localization (MyoD [2])	IC50 (PHDs)
Cc1nc(C(=O)NCC(=O)O)c(O)c2ccc(Oc3ccccc3)cc12 [FG-4592, Roxadustat]	15 fold	2.6 fold	36%	2.1 fold	2.3 fold	1.5 fold	42%	40 µM
O=C(O)CNC(=O)c1c(O)c2ccccc2n(Cc2ccccc2)c1=O [IOX2]	8.8 fold	2.2 fold	18%	1.6 fold	1.4 fold	1.6 fold	no significant changes	50 µM
